For 11 compounds, IC50 results are on record in patent US10611750B2, “Tetrahydroquinoline compositions as bet bromodomain inhibitors” (FORMA Therapeutics, Inc., priority 2013, dated 2020).

Experiment [1] deals with acute myelocytic leukemia (AML) cell line MV4-11. Description: Oncology cell growth assay (3-day proliferation, CellTiter-Glo). The experiment is classed as cell-based. The conditions noted are these: Homo sapiens, MV4-11, 72 h, MV4-11 cells, 3000 cells/well, compounds listed under IC50 range headings, read-out: MV411 IC50 (gIC50, inhibition of proliferation). The procedure, abridged: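 A 3-day proliferation test used MV4-11 cells seeded at 3000 per well with eight compound concentrations (10 μM top, 3-fold dilution) at 37° C in 5% CO2. CellTiter-Glo luminescence defined viable cell signal. A four-parameter logistic curve against DMSO and background wells gave the gIC50.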

Experiment [2] addresses T1, BRD4 Bromodomain 1 (BRD4 BD1) (Homo sapiens, UniProt O60885).
T1 construct: 44-168 and BRD4 BD2
Kind of experiment: AlphaScreen binding assay, BRD4 BD1. The conditions noted are these: His-tagged BRD4 BD1 50 nM, biotinylated H4 (1-21) K5/8/12/16 tetra-acetylated peptide 50 nM, compounds listed under IC50 range headings. The gist of the method:
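Compound dilution series were mixed with His-tagged BRD4 bromodomain and biotinylated tetra-acetylated H4 (1-21) peptide at pH 7.3 (BD1 and peptide at 50 nM, BD2 and peptide at 100 nM). Donor and acceptor beads were then added, and plates were equilibrated at least 1 h before reading. IC50 values were fitted with a four-parameter logistic model.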
(In general: In Alpha technology, singlet oxygen from a donor bead excites a nearby acceptor bead.)

With `C[C@H]1CCc2c(ccc(-n3cccn3)c2OC2CCC2)N1C(=O)C1CC1` [I-324, (S)-(5-cyclobutoxy-2-methyl-6-(1H-pyrazol-1-yl)-3,4-dihydroquinolin-1(2H)-yl)(cyclopropyl)methanone], the IC50 is > 1000 nM in experiment [1] and ≥ 10000 nM in experiment [2].
In the same order, the values of `C[C@H]1CCc2c(ccc(-n3cccn3)c2Oc2ccccc2)N1C(=O)C1CC1` [I-325, (S)-cyclopropyl(2-methyl-5-phenoxy-6-(1H-pyrazol-1-yl)-3,4-dihydroquinolin-1(2H)-yl)methanone] are > 1000 nM and ≥ 10000 nM.
For `C[C@H]1CCc2c(ccc(-n3nccn3)c2OC2CCC2)N1C(=O)C1CC1` [I-326, (S)-(5-cyclobutoxy-2-methyl-6-(2H-1,2,3-triazol-2-yl)-3,4-dihydroquinolin-1(2H)-yl)(cyclopropyl)methanone], the values for the IC50 in experiment [1] and in experiment [2] were > 1000 nM and ≥ 10000 nM, respectively.
In the case of `C[C@H]1CCc2c(ccc(-n3nccn3)c2Oc2ccccc2)N1C(=O)C1CC1` [I-327, (S)-cyclopropyl(2-methyl-5-phenoxy-6-(2H-1,2,3-triazol-2-yl)-3,4-dihydroquinolin-1(2H)-yl)methanone], the results for the IC50 in experiment [1] and in experiment [2] were > 1000 nM and ≥ 10000 nM, respectively.
In the same order, the values of `C[C@H]1CCc2c(ccc(-c3ncc(C4CCNCC4)[nH]3)c2OC2CCC2)N1C(=O)C1CC1` [I-328, (S)-(5-cyclobutoxy-2-methyl-6-(5-(piperidin-4-yl)-1H-imidazol-2-yl)-3,4-dihydroquinolin-1(2H)-yl)(cyclopropyl)methanone] are < 500 nM and 1000 to 10000 nM.
In the same order, the values of `C[C@H]1CCc2c(ccc(-c3ncc(C4CCNCC4)[nH]3)c2Oc2ccccc2)N1C(=O)C1CC1` [I-329, (S)-cyclopropyl(2-methyl-5-phenoxy-6-(5-(piperidin-4-yl)-1H-imidazol-2-yl)-3,4-dihydroquinolin-1(2H)-yl)methanone] are < 500 nM and 100 to 1000 nM.
With `Cc1cc(Oc2c(-c3cnn(C4CCNCC4)c3)ccc3c2CC[C@H](C)N3C(=O)C2CC2)cc(C)n1` [I-330, (S)-cyclopropyl(5-(2,6-dimethylpyridin-4-yloxy)-2-methyl-6-(1-(piperidin-4-yl)-1H-pyrazol-4-yl)-3,4-dihydroquinolin-1(2H)-yl)methanone], the figures for the IC50 in experiment [1] and in experiment [2] were < 500 nM and 100 to 1000 nM, respectively.
On the same counts, the results for `Cc1cccc(Oc2c(-c3cnn(C4CCNCC4)c3)ccc3c2CC[C@H](C)N3C(=O)C2CC2)n1` [I-331, (S)-cyclopropyl(2-methyl-5-(6-methylpyridin-2-yloxy)-6-(1-(piperidin-4-yl)-1H-pyrazol-4-yl)-3,4-dihydroquinolin-1(2H)-yl)methanone] are < 500 nM and 100 to 1000 nM.
In the same order, the values of `Cc1ccc(Oc2c(-c3cnn(C4CCNCC4)c3)ccc3c2CC[C@H](C)N3C(=O)C2CC2)c(C)n1` [I-332, (S)-cyclopropyl(5-(2,6-dimethylpyridin-3-yloxy)-2-methyl-6-(1-(piperidin-4-yl)-1H-pyrazol-4-yl)-3,4-dihydroquinolin-1(2H)-yl)methanone] are < 500 nM and 100 to 1000 nM.
On the same counts, the results for `COC(=O)N1c2ccc(-c3cnn(C4CCNCC4)c3)c(Oc3cccc(C)n3)c2CC[C@@H]1C` [I-333, (S)-methyl 2-methyl-5-(6-methylpyridin-2-yloxy)-6-(1-(piperidin-4-yl)-1H-pyrazol-4-yl)-3,4-dihydroquinoline-1(2H)-carboxylate] are < 500 nM and 100 to 1000 nM.
As for `CC(=O)N1c2ccc(-c3cnn(C4CCNCC4)c3)c(Oc3cccc(C)n3)c2CC[C@@H]1C` [I-334, (S)-1-(2-methyl-5-(6-methylpyridin-2-yloxy)-6-(1-(piperidin-4-yl)-1H-pyrazol-4-yl)-3,4-dihydroquinolin-1 (2H)-yl)ethanone], the results for the IC50 in experiment [1] and in experiment [2] were < 500 nM and 1000 to 10000 nM, respectively.
